Experimental data reported in patent US20050197336A1 (Miikana Therapeutics Corporation, priority 2004, published 2005).

Key:
[1] = system: Histone deacetylase (HDAC), HeLa cell nuclear extract; assay: In vitro fluorescent histone deacetylase assay (Biomol kit, HeLa cell nuclear extract); assay type: biochemical; details: compound at 100 μM; HeLa cell nuclear extract as HDAC source; substrate 50 μM; 10 min at room temperature
Procedure: Histone deacetylase (HDAC) activity assays were performed using the HDAC fluorescent activity assay/drug discovery kit (Biomol Research Laboratories, Plymouth Meeting, Pa.) essentially according to the manufacturer's instructions. The included HeLa cell nuclear extract, which contains a mosaic of HDAC enzymes and other nuclear factors, was used as the source of HDAC activity. The final substrate concentration in the assay mixture was 50 μM. The reaction was allowed to proceed for 10 min at room temperature before stopping the reaction. Test compounds were prepared as 20 mM stock solutions in DMSO (Molecular Biology grade, Sigma-Aldrich Co. St. Louis, Mo.) and stored at −70° C. Serial dilutions of test compounds were prepared in assay buffer immediately prior to testing. DMSO was determined in a separate trial to have no significant effect on the activity of this assay at concentrations up to 5%; the final DMSO concentration in the wells was no more than 2% and therefore DMSO effects were safely neglected. Assays were performed in white polystyrene 96-well half-area assay plates (Corning, Corning, N.Y.) and measured on a Wallace 1420 fluorescent plate reader (Wallac Oy, Turku, Finland) with an excitation wavelength of 355 nm, an emission wavelength of 460 nm, and a 1 sec signal averaging time.

[2] = system: MCF7 cells; assay: Whole cell cytotoxicity assay: Sulforhodamine B; assay type: cell-based, human; details: Homo sapiens; compound at 100 μM; MCF7 cell growth; 48 hours with drug; SRB staining
Procedure: The following procedure can be found on the Developmental Therapeutics Program NCI/NIH web site at http://dtp.nci.nih.gov/brancehes/btb/ivclsp.html.
1. Human tumor cell lines of HT29, A549 and MCF7 are grown in DMEM containing 10% fetal bovine serum and 2 mM L-glutamine. Cells are plated in a 96 well plate at a density of 5000 cells per well in 100 μL of growth medium and incubated at 37° C., 5% CO2, for 24 hours prior to the addition of experimental compounds.
2. Experimental drugs are solubilized in DMSO for a final concentration of 20 mM immediately prior to use. Drugs are further diluted in growth media for a total of nine drug concentrations and a growth control. At the 24 hour time point, one plate of cells is fixed in situ with TCA as a measurement of the cell population at time zero, or the time of drug addition.
3. The plates are further incubated with drug for an additional 48 hours.
4. The cells are fixed in situ by gently aspirating off the culture media and then adding 50 μL of ice cold 10% TCA per well and incubated at 4° C. for 60 minutes. The plates are washed with tap water five times and allowed to air dry for 5 minute.
5. 50 μL of a 0.4% (w/v) Sulforhodamine B solution in 1% (v/v) acetic acid is added per well and incubated for 30 minutes at room temperature.
6. Following staining, plates are washed five times with 1% acetic acid to remove any unbound dye and then allowed to air dry for 5 minutes.
7. Stain is solubilized with 100 μL of 10 mM Tris pH 10.5 per well and placed on an orbital rotator for 5 minutes.
8. Absorbance is read at 570 nm.

Structure (SMILES) | % inhibition HDAC @ 100 μM [1] [%] | inhibition at 100 µM [2] [%]
Cc1ccc(F)cc1S(=O)(=O)N1CCN(c2ncc(C(=O)NO)s2)CC1 [Example 33, 2-[4-(2-methyl-5-fluorophenylsulfonyl)-piperazin-1-yl]-thiazole-5-carboxylic acid hydroxyamide] | 96 | 98.4
O=C(NO)c1cnc(N2CCN(S(=O)(=O)c3ccccc3F)CC2)s1 [Example 34, 2-[4-(2-fluorophenylsulfonyl)-piperazin-1-yl]-thiazole-5-carboxylic acid hydroxyamide] | 92 | 97.7
O=C(NO)c1cnc(N2CCN(S(=O)(=O)c3cccc(F)c3)CC2)s1 [Example 35, 2-[4-(3-fluorophenylsulfonyl)-piperazin-1-yl]-thiazole-5-carboxylic acid hydroxyamide] | 97 | 97.9
O=C(NO)c1cnc(N2CCN(S(=O)(=O)c3ccc(F)c(F)c3)CC2)s1 [Example 36, 2-[4-(3,4-difluorophenylsulfonyl)-piperazin-1-yl]-thiazole-5-carboxylic acid hydroxyamide] | 98 | 98.2
O=C(NO)c1cnc(N2CCN(S(=O)(=O)c3ccccc3C(F)(F)F)CC2)s1 [Example 37, 2-[4-(2-trifluoromethylphenylsulfonyl)-piperazin-1-yl]-thiazole-5-carboxylic acid hydroxyamide] | 99 | 98
Cc1cccc(Cl)c1S(=O)(=O)N1CCN(c2ncc(C(=O)NO)s2)CC1 [Example 38] | 100 | 97.8
Cc1ccc(S(=O)(=O)N2CCN(c3ncc(C(=O)NO)s3)CC2)cc1F [Example 40, 2-[4-(3-fluoro-4-methylphenylsulfonyl)-piperazin-1-yl]-thiazole-5-carboxylic acid hydroxyamide] | 100 | 99.1
Cc1cc(F)ccc1S(=O)(=O)N1CCN(c2ncc(C(=O)NO)s2)CC1 [Example 41, 2-[4-(4-fluoro-2-methylphenylsulfonyl)-piperazin-1-yl]-thiazole-5-carboxylic acid hydroxyamide] | 98 | 98.1
O=C(NO)c1cnc(N2CCN(S(=O)(=O)c3cc4ccccc4s3)CC2)s1 [Example 43] | 99 | 91
CSc1nccc(-c2ccc(S(=O)(=O)N3CCN(c4ncc(C(=O)NO)s4)CC3)s2)n1 [Example 45, 2-[4-(2-{2-methylthiopyrimidine-4-yl}-5-thiophenesulfonyl)-piperazin-1-yl]-thiazole-5-carboxylic acid hydroxyamide] | 95 | 78.7
O=C(NO)c1cnc(N2CCN(S(=O)(=O)c3ccc4nsnc4c3)CC2)s1 [Example 46, 2-[4-(2,1,3-benzothiadiazole-5-sulfonyl)-piperazin-1-yl]-thiazole-5-carboxylic acid hydroxyamide] | 98 | 77.3
O=C(NO)c1cnc(N2CCN(S(=O)(=O)c3ccc(Oc4ccccc4)nc3)CC2)s1 [Example 47, 2-[4-(2-phenoxypyridine-5-sulfonyl)-piperazin-1-yl]-thiazole-5-carboxylic acid hydroxyamide] | 96 | 90.2
CN1CCOc2cc(S(=O)(=O)N3CCN(c4ncc(C(=O)NO)s4)CC3)ccc21 [Example 48, 2-[4-(N-methyl-2,3-dihydrobenzisoxazinylsulfonyl)-piperazin-1-yl]-thiazole-5-carboxylic acid hydroxyamide] | 96 | 89.4
O=C(NO)c1cnc(N2CCN(S(=O)(=O)c3cccnc3)CC2)s1 [Example 49, 2-[4-(pyridine-3-sulfonyl)-piperazin-1-yl]-thiazole-5-carboxylic acid hydroxyamide] | 85 | 95.4
Cc1ccc(S(=O)(=O)N2CCN(c3ncc(C(=O)NO)s3)CC2)cc1C [Example 50, 2-[4-(3,4-dimethylphenylsulfonyl)-piperazin-1-yl]-thiazole-5-carboxylic acid hydroxyamide] | 99 | 98.3
O=C(NO)c1cnc(N2CCN(S(=O)(=O)c3cccc(-c4ccccc4)c3)CC2)s1 [Example 51, 2-[4-(3-biphenylsulfonyl)-piperazin-1-yl]-thiazole-5-carboxylic acid hydroxyamide] | 100 | 97
CCCCS(=O)(=O)N1CCN(c2ncc(C(=O)NO)s2)CC1 [Example 53, 2-[4-(n-butylsulfonyl)piperazin-1-yl]-thiazole-5-carboxylic acid hydroxyamide] | 94 | 89.9
O=C(NO)c1cnc(N2CCN(S(=O)(=O)c3ccc(Br)s3)CC2)s1 [Example 55, 2-{4-[(5-bromothien-2-yl)sulfonyl]piperazin-1-yl}-N-hydroxy-1,3-thiazole-5-carboxamide] | 9 | 0
O=C(NO)c1cnc(N2CCN(S(=O)(=O)c3ccc(-c4ccc(F)cc4)cc3)CC2)s1 [Example 56, 2-{4-[(4′-fluoro-1,1′-biphenyl-4-yl)sulfonyl]piperazin-1-yl}-1,3-thiazole-5-carboxylic acid hydroxyamide] | 98 | 96.9
O=C(NO)c1cnc(N2CCN(S(=O)(=O)c3ccc(-c4cccc(Cl)c4)cc3)CC2)s1 [Example 57, 2-{4-[(3′-chloro-1,1′-biphenyl-4-yl)sulfonyl]piperazin-1-yl}-1,3-thiazole-5-carboxylic acid hydroxyamide] | 93 | 68.6
O=C(NO)c1cnc(N2CCN(S(=O)(=O)c3ccc(-c4ccccc4Cl)cc3)CC2)s1 [Example 58, 2-{4-[(2′-chloro-1,1′-biphenyl-4-yl)sulfonyl]piperazin-1-yl}-1,3-thiazole-5-carboxylic acid hydroxyamide] | 95 | 97.6
O=C(NO)c1cnc(N2CCN(S(=O)(=O)c3ccc(-c4ccco4)cc3)CC2)s1 [Example 59, 2-(4-{[4-(2-furyl)phenyl]sulfonyl}piperazin-1-yl)-1,3-thiazole-5-carboxylic acid hydroxyamide] | 99 | 98.9
O=C(NO)c1cnc(N2CCN(S(=O)(=O)c3ccc(-c4ccc5c(c4)OCO5)cc3)CC2)s1 [Example 60, 2-(4-{[4-(1,3-benzodioxol-5-yl)phenyl]sulfonyl}piperazin-1-yl)-1,3-thiazole-5-carboxylic acid hydroxyamide] | 99 | 92.1
O=C(NO)c1cnc(N2CCN(S(=O)(=O)c3ccc(-c4cccc(F)c4)cc3)CC2)s1 [Example 61] | 95 | 92.2
O=C(NO)c1cnc(N2CCN(S(=O)(=O)c3ccc(-c4ccc(Cl)cc4)cc3)CC2)s1 [Example 62] | 98 | 75
COc1ccc(-c2ccc(S(=O)(=O)N3CCN(c4ncc(C(=O)NO)s4)CC3)cc2)cc1 [Example 63] | 98 | 93.3
CC(C)(C)c1ccc(-c2ccc(S(=O)(=O)N3CCN(c4ncc(C(=O)NO)s4)CC3)cc2)cc1 [Example 64] | 48 | 87
O=C(NO)c1cnc(N2CCN(S(=O)(=O)c3ccc(-c4cccs4)cc3)CC2)s1 [Example 65, 2-{4-[(4-thien-2-ylphenyl)sulfonyl]piperazin-1-yl}-1,3-thiazole-5-carboxylic acid hydroxamide] | 99 | 95
CC(C)(C)OC(=O)n1cccc1-c1ccc(S(=O)(=O)N2CCN(c3ncc(C(=O)NO)s3)CC2)cc1 [Example 66] | 99 | 97
